According to patent US11008323B2, “Substituted tricyclic 1,4-benzodiazepinone derivatives as allosteric modulators of group II metabotropic glutamate receptors” (Domain Therapeutics, priority 2015, dated 2021):
Where a name gives a salt, the structure may show the parent alone.

| Compound | melting point [°C] |
| --- | --- |
| Cc1ncccc1-c1ccc2c(c1)-n1nc(-c3ccccc3)cc1C(=O)N(C)C21CC1 (as salt: hydrochloride) [Example 125, 9-(2-Methyl-pyridin-3-yl)-5-methyl-2-phenyl-spiro[benzo[f]pyrazolo[1,5-a][1,4]diazepine-6,1′-cyclopropan]-4(5H)-one] | 185 to 206 |
| Cc1ccnc(C)c1-c1ccc2c(c1)-n1cccc1C(=O)N(C)C21CC1 (as salt: hydrochloride) [Example 65, 5-Methyl-9-(2,4-dimethylpyridin-3-yl)-spiro[benzo[f]pyrrolo[1,2-a][1,4]diazepine-6,1′-cyclopropan]-4(5H)-one] | 200 to 208 |
| Cc1ncccc1-c1ccc2c(c1)-n1cc(-c3cnc[nH]3)cc1C(=O)N(C)C21CC1 (as salt: hydrochloride) [Example 183] | > 250 |
| Cc1ncccc1-c1ccc2c(c1F)-n1cccc1C(=O)N(C)C21CC1 (as salt: hydrochloride) [Example 75, 10-Fluoro-5-methyl-9-(2-methyl-pyridin-3-yl)-spiro[benzo[f]pyrrolo[1,2-a][1,4]diazepine-6,1′-cyclopropan]-4(5H)-one] | 166 to 184 |
| Cc1cc2n(c1)-c1cc(-c3cccnc3C)ccc1C1(CC1)N(C)C2=O (as salt: hydrochloride) [Example 144] | 162 to 175 |
| CC(=O)c1cc2n(c1)-c1cc(-c3cccnc3C)ccc1C1(CC1)N(C)C2=O (as salt: hydrochloride) [Example 195] | 200 to 220 |
| CN1C(=O)c2cccn2-c2cc(-c3ccc(N4CCOCC4)nc3)ccc2C12CC2 (as salt: hydrochloride) [Example 42, 5-Methyl-9-(6-morpholin-4-yl-pyridin-3-yl)-spiro[benzo[f]pyrrolo[1,2-a][1,4]diazepine-6,1′-cyclopropan]-4(5H)-one] | 191 to 199 |
| Cc1ccc(-c2ccc3c(c2)-n2nc(-c4ccccc4)cc2C(=O)N(C)C32CC2)c(C)n1 (as salt: hydrochloride) [Example 126, 9-(2,6-Dimethyl-pyridin-3-yl)-5-methyl-2-phenyl-spiro[benzo[f]pyrazolo[1,5-a][1,4]diazepine-6,1′-cyclopropan]-4(5H)-one] | > 250 |
| CCc1ncccc1-c1ccc2c(c1)-n1cc(CO)cc1C(=O)N(C)C21CC1 (as salt: hydrochloride) [Example 203] | > 250 |
| Cc1cnccc1-c1ccc2c(c1)-n1cccc1C(=O)N(C)C21CC1 (as salt: hydrochloride) [Example 38, 5-Methyl-9-(3-methylpyridin-4-yl)-spiro[benzo[f]pyrrolo[1,2-a][1,4]diazepine-6,1′-cyclopropan]-4(5H)-one] | > 250 |
| Cc1ncccc1-c1cccc2c1-n1cccc1C(=O)N(C)C21CC1 (as salt: hydrochloride) [Example 92, 10-(2-Methyl-pyridin-3-yl)-5-methyl-spiro[benzo[f]pyrrolo[1,2-a][1,4]diazepine-6,1′-cyclopropan]-4(5H)-one] | 250 |
| CN1C(=O)c2cccn2-c2cc(-c3cnc(N)c(C(F)(F)F)c3)ccc2C12CC2 (as salt: hydrochloride) [Example 40, 5-Methyl-9-(6-amino-5-trifluoromethyl-pyridin-3-yl)-spiro[benzo[f]pyrrolo[1,2-a][1,4]diazepine-6,1′-cyclopropan]-4(5H)-one] | > 250 |
| Cc1ncccc1-c1ccc2c(c1)-n1cncc1C(=O)N(C)C2 (as salt: hydrochloride) [Example 215, 5-Methyl-9-(2-methylpyridin-3-yl)-5,6-dihydro-4H-benzo[f]imidazo[1,5-a][1,4]diazepin-4-one] | 158 to 170 |
| Cc1ncccc1-c1ccc2c(c1)-n1cc(-c3ncc[nH]3)cc1C(=O)N(C)C21CC1 (as salt: hydrochloride) [Example 184] | > 250 |
| Cc1ccc(-c2ccc3c(c2)-n2cccc2C(=O)N(C)C32CC2)cn1 (as salt: hydrochloride) [Example 25, 5-Methyl-9-(6-methylpyridin-3-yl)-spiro[benzo[f]pyrrolo[1,2-a][1,4]diazepine-6,1′-cyclopropan]-4(5H)-one] | 205 to 215 |

The remaining lines, values ahead:

| melting point [°C] | Compound |
| --- | --- |
| 220 to 230 | CN1C(=O)c2cc(-c3ccccc3)cn2-c2cc(-c3ccncc3)ccc2C12CC2 (as salt: hydrochloride) [Example 102, 5-Methyl-2-phenyl-9-(pyridin-4-yl)-spiro[benzo[f]pyrrolo[1,2-a][1,4]diazepine-6,1′-cyclopropan]-4(5H)-one] |
| > 250 | CN1C(=O)c2cc(-c3ccccc3)cn2-c2cc(-c3ccc(N)nc3)ccc2C12CC2 (as salt: hydrochloride) [Example 96, 5-Methyl-2-phenyl-9-(6-amino-pyridin-3-yl)-spiro[benzo[f]pyrrolo[1,2-a][1,4]diazepine-6,1′-cyclopropan]-4(5H)-one] |
| > 250 | Cc1cc(-c2ccc3c(c2)-n2nc(-c4ccccc4)cc2C(=O)N(C)C32CC2)cc(C)n1 (as salt: hydrochloride) [Example 121, 9-(2,6-Dimethyl-pyridin-4-yl)-5-methyl-2-phenyl-spiro[benzo[f]pyrazolo[1,5-a][1,4]diazepine-6,1′-cyclopropan]-4(5H)-one] |
| 209 to 213 | CN(C)c1ncccc1-c1ccc2c(c1)-n1cc(-c3ccccc3)cc1C(=O)N(C)C21CC1 (as salt: hydrochloride) [Example 119, 5-Methyl-2-phenyl-9-(2-dimethylamino-pyridin-3-yl)-spiro[benzo[f]pyrrolo[1,2-a][1,4]diazepine-6,1′-cyclopropan]-4(5H)-one] |
| 228 to 239 | Cc1ccc(-c2ccc3c(c2)-n2cc(-c4nccs4)cc2C(=O)N(C)C32CC2)cn1 (as salt: hydrochloride) [Example 158] |
| 160 to 170 | CN(C)c1ccc2c(c1)-n1cc(-c3ccccc3)cc1C(=O)N(C)C21CC1 (as salt: hydrochloride) [Example 115, 9-Dimethylamino-5-methyl-2-phenyl-spiro[benzo[f]pyrrolo[1,2-a][1,4]diazepine-6,1′-cyclopropan]-4(5H)-one] |
| 168 to 173 | CN1C(=O)c2cc(-c3ccccc3)cn2-c2cc(-c3cncnc3)ccc2C12CC2 (as salt: hydrochloride) [Example 104, 5-Methyl-2-phenyl-9-(pyrimidin-5-yl)-spiro[benzo[f]pyrrolo[1,2-a][1,4]diazepine-6,1′-cyclopropan]-4(5H)-one] |
| > 250 | CN1C(=O)c2cc(-c3ccccc3)nn2-c2cc(-c3ccc(N)nc3)ccc2C12CC2 (as salt: hydrochloride) [Example 127, 9-(6-Amino-pyridin-3-yl)-5-methyl-2-phenyl-spiro[benzo[f]pyrazolo[1,5-a][1,4]diazepine-6,1′-cyclopropan]-4(5H)-one] |
| 179 to 183 | CCc1ncccc1-c1ccc2c(c1)-n1cc(-c3ccccc3)cc1C(=O)N(C)C21CC1 (as salt: hydrochloride) [Example 99, 5-Methyl-2-phenyl-9-(2-ethyl-pyridin-3-yl)-spiro[benzo[f]pyrrolo[1,2-a][1,4]diazepine-6,1′-cyclopropan]-4(5H)-one] |
